Results: publication PMC5574958, “Radiosynthesis and Preclinical Evaluation of [^18F]F-DPA, A Novel Pyrazolo[1,5a]pyrimidine Acetamide TSPO Radioligand, in Healthy Sprague Dawley Rats” (Molecular Imaging and Biology, 2017)
One block for each compound: values may come before it.

Legend:
TSPO = settings: read-out: K i (TSPO affinity); cited from earlier work
CBR = settings: read-out: K i CBR (selectivity); cited from earlier work
Ex vivo biodistribution = type: in vivo, Sprague Dawley rats; settings: for Uptake of fluorine-18-radioactivity, Harderian gland / Uptake of fluorine-18-radioactivity, Brain / Uptake of fluorine-18-radioactivity, Brown fat / Uptake of fluorine-18-radioactivity, Eye x2 / Uptake of fluorine-18-radioactivity, Injection site (tail) / Uptake of fluorine-18-radioactivity, Large int. Wall + contents / Uptake of fluorine-18-radioactivity, Liver / Uptake of fluorine-18-radioactivity, Lung / Uptake of fluorine-18-radioactivity, Muscle / Uptake of fluorine-18-radioactivity, Salivary x2 / Uptake of fluorine-18-radioactivity, Small int. wall + contents / Uptake of fluorine-18-radioactivity, Stomach wall + contents / Uptake of fluorine-18-radioactivity, Testis: mean, n = 3
Experimental: After sacrifice (5, 15, 30, 60, and 90 min after injection, n = 3, for every time point and radiotracer), the blood was collected into Li-heparin tubes and transcardial perfusion with saline was conducted rapidly in order to eliminate the blood from the whole body. Following this, the organs of the animals were collected, individually weighed, and the radioactivity was measured using a gamma counter (Wizard^2 3 × 3″, PerkinElmer, Turku, Finland). The decay-corrected radioactivity is reported as percentage of injected dose per gram (%ID/g).

[1] = RadioTLC analyses of radiometabolites in plasma and brain homogenates; type: in vivo, Sprague Dawley rats; settings: 90 min after injection, n = 3
Experimental: The blood samples were taken into Li-heparin tubes and centrifuged (3000×g, 10 min). The plasma was transferred to an Eppendorf tube and the plasma proteins were precipitated by addition of 1.5 parts of MeOH by volume. Following a further centrifugation (12,000×g, 4 min), 20 μl of the supernatant was spotted onto an aluminum-backed silica gel 60/Kieselguhr F254 TLC plate (EMD Millipore 1.05567.0001, Merck Millipore, Darmstadt, Germany).
Brain samples from the cortex were homogenized with approximately 200 μl of 1:1 v/v of MeOH and water; the mixture was transferred to an Eppendorf tube and centrifuged (12,000×g, 4 min). An aliquot (20 μl) of the supernatant was spotted onto the TLC plate.
The TLC plates were developed with a mixture of dichloromethane and methanol (9:1, v/v) for a distance of 6 cm. Following this, the plates were exposed onto an imaging plate (Fuji BAS Imaging Plate TR2025, Fuji Photo Film Co., Ltd., Tokyo, Japan) for approximately two half-lives of fluorine-18 (3.5 to 4 h). After the exposure, the imaging plates were scanned using a BAS-5000 reader (Fuji, Japan) with a resolution of 50 μm and the saved images were analyzed using TINA software (version 2.10 g, Raytest, Isotopenmessgeräte, GmbH, Straubenhardt, Germany).

[2] = Plasma protein binding (ultrafiltration of plasma after tracer injection); type: in vivo, Sprague Dawley rats; settings: 15 min after injection, 30 kDa ultrafiltration, n = 3
Experimental: After 15 min, the animals were sacrificed and the blood was collected into Li-heparin tubes and centrifuged (3000×g, 10 min). A 10-μl aliquot of the plasma was spotted onto a TLC plate; following this, the remaining plasma was filtered by ultrafiltration using Microsep 30K Omega (Pall Life Sciences, Mexico) with a cut-off of 30 kDa. A 10-μl aliquot of the resulting supernatant was also spotted onto the TLC plate. The plates were exposed onto an imaging plate (Fuji BAS Imaging Plate TR2025, Fuji Photo Film Co., Ltd., Tokyo, Japan) for approximately two half-lives of fluorine-18 (3.5 to 4 h). After the exposure, the imaging plates were scanned using a BAS-5000 reader (Fuji, Japan) with a resolution of 50 μm and the saved images were analyzed using TINA software (version 2.10 g, Raytest, Isotopenmessgeräte, GmbH, Straubenhardt, Germany).

Compound: CCN(CC)C(=O)Cc1c(-c2ccc(F)cc2)nn2c(C)cc(C)nc12 [F-DPA, N,N-Diethyl-2-(2-(4-fluorophenyl)-5,7-dimethylpyrazolo[1,5-a]pyrimidin-3-yl)acetamide]
Ki (TSPO): 1.7 nM
Ki (CBR): > 1000 nM

Uptake of fluorine-18-radioactivity, Harderian gland (Ex vivo biodistribution; 5 min after injection): 0.40 %ID/g tissue
Uptake of fluorine-18-radioactivity, Harderian gland (Ex vivo biodistribution; 15 min after injection): 0.52 %ID/g tissue
Uptake of fluorine-18-radioactivity, Harderian gland (Ex vivo biodistribution; 30 min after injection): 0.45 %ID/g tissue
Uptake of fluorine-18-radioactivity, Harderian gland (Ex vivo biodistribution; 60 min after injection): 0.54 %ID/g tissue
Uptake of fluorine-18-radioactivity, Harderian gland (Ex vivo biodistribution; 90 min after injection): 0.43 %ID/g tissue
Uptake of fluorine-18-radioactivity, Brain (Ex vivo biodistribution; 5 min after injection): 0.29 %ID/g tissue
Uptake of fluorine-18-radioactivity, Brain (Ex vivo biodistribution; 15 min after injection): 0.17 %ID/g tissue
Uptake of fluorine-18-radioactivity, Brain (Ex vivo biodistribution; 30 min after injection): 0.12 %ID/g tissue
Uptake of fluorine-18-radioactivity, Brain (Ex vivo biodistribution; 60 min after injection): 0.09 %ID/g tissue
Uptake of fluorine-18-radioactivity, Brain (Ex vivo biodistribution; 90 min after injection): 0.08 %ID/g tissue
Uptake of fluorine-18-radioactivity, Brown fat (Ex vivo biodistribution; 5 min after injection): 0.22 %ID/g tissue
Uptake of fluorine-18-radioactivity, Brown fat (Ex vivo biodistribution; 15 min after injection): 0.31 %ID/g tissue
Uptake of fluorine-18-radioactivity, Brown fat (Ex vivo biodistribution; 30 min after injection): 0.51 %ID/g tissue
Uptake of fluorine-18-radioactivity, Brown fat (Ex vivo biodistribution; 60 min after injection): 1.07 %ID/g tissue
Uptake of fluorine-18-radioactivity, Brown fat (Ex vivo biodistribution; 90 min after injection): 1.25 %ID/g tissue
Uptake of fluorine-18-radioactivity, Eye x2 (Ex vivo biodistribution; eye x2, 5 min after injection): 0.28 %ID/g tissue
Uptake of fluorine-18-radioactivity, Eye x2 (Ex vivo biodistribution; eye x2, 15 min after injection): 0.29 %ID/g tissue
Uptake of fluorine-18-radioactivity, Eye x2 (Ex vivo biodistribution; eye x2, 30 min after injection): 0.26 %ID/g tissue
Uptake of fluorine-18-radioactivity, Eye x2 (Ex vivo biodistribution; eye x2, 60 min after injection): 0.22 %ID/g tissue
Uptake of fluorine-18-radioactivity, Eye x2 (Ex vivo biodistribution; eye x2, 90 min after injection): 0.20 %ID/g tissue
Uptake of fluorine-18-radioactivity, Injection site (tail) (Ex vivo biodistribution; 5 min after injection): 0.49 %ID/g tissue
Uptake of fluorine-18-radioactivity, Injection site (tail) (Ex vivo biodistribution; 15 min after injection): 0.29 %ID/g tissue
Uptake of fluorine-18-radioactivity, Injection site (tail) (Ex vivo biodistribution; 30 min after injection): 0.34 %ID/g tissue
Uptake of fluorine-18-radioactivity, Injection site (tail) (Ex vivo biodistribution; 60 min after injection): 0.38 %ID/g tissue
Uptake of fluorine-18-radioactivity, Injection site (tail) (Ex vivo biodistribution; 90 min after injection): 0.24 %ID/g tissue
Uptake of fluorine-18-radioactivity, Large int. Wall + contents (Ex vivo biodistribution; 5 min after injection): 0.20 %ID/g tissue
Uptake of fluorine-18-radioactivity, Large int. Wall + contents (Ex vivo biodistribution; 15 min after injection): 0.24 %ID/g tissue
Uptake of fluorine-18-radioactivity, Large int. Wall + contents (Ex vivo biodistribution; 30 min after injection): 0.26 %ID/g tissue
Uptake of fluorine-18-radioactivity, Large int. Wall + contents (Ex vivo biodistribution; 60 min after injection): 0.41 %ID/g tissue
Uptake of fluorine-18-radioactivity, Large int. Wall + contents (Ex vivo biodistribution; 90 min after injection): 0.29 %ID/g tissue
Uptake of fluorine-18-radioactivity, Liver (Ex vivo biodistribution; 5 min after injection): 0.78 %ID/g tissue
Uptake of fluorine-18-radioactivity, Liver (Ex vivo biodistribution; 15 min after injection): 0.87 %ID/g tissue
Uptake of fluorine-18-radioactivity, Liver (Ex vivo biodistribution; 30 min after injection): 0.60 %ID/g tissue
Uptake of fluorine-18-radioactivity, Liver (Ex vivo biodistribution; 60 min after injection): 0.37 %ID/g tissue
Uptake of fluorine-18-radioactivity, Liver (Ex vivo biodistribution; 90 min after injection): 0.26 %ID/g tissue
Uptake of fluorine-18-radioactivity, Lung (Ex vivo biodistribution; 5 min after injection): 19.83 %ID/g tissue
Uptake of fluorine-18-radioactivity, Lung (Ex vivo biodistribution; 15 min after injection): 10.24 %ID/g tissue
Uptake of fluorine-18-radioactivity, Lung (Ex vivo biodistribution; 30 min after injection): 5.73 %ID/g tissue
Uptake of fluorine-18-radioactivity, Lung (Ex vivo biodistribution; 60 min after injection): 3.01 %ID/g tissue
Uptake of fluorine-18-radioactivity, Lung (Ex vivo biodistribution; 90 min after injection): 2.00 %ID/g tissue
Uptake of fluorine-18-radioactivity, Muscle (Ex vivo biodistribution; 5 min after injection): 0.07 %ID/g tissue
Uptake of fluorine-18-radioactivity, Muscle (Ex vivo biodistribution; 15 min after injection): 0.07 %ID/g tissue
Uptake of fluorine-18-radioactivity, Muscle (Ex vivo biodistribution; 30 min after injection): 0.11 %ID/g tissue
Uptake of fluorine-18-radioactivity, Muscle (Ex vivo biodistribution; 60 min after injection): 0.16 %ID/g tissue
Uptake of fluorine-18-radioactivity, Muscle (Ex vivo biodistribution; 90 min after injection): 0.18 %ID/g tissue
Uptake of fluorine-18-radioactivity, Salivary x2 (Ex vivo biodistribution; salivary x2, 5 min after injection): 0.59 %ID/g tissue
Uptake of fluorine-18-radioactivity, Salivary x2 (Ex vivo biodistribution; salivary x2, 15 min after injection): 1.34 %ID/g tissue
Uptake of fluorine-18-radioactivity, Salivary x2 (Ex vivo biodistribution; salivary x2, 30 min after injection): 0.88 %ID/g tissue
Uptake of fluorine-18-radioactivity, Salivary x2 (Ex vivo biodistribution; salivary x2, 60 min after injection): 1.00 %ID/g tissue
Uptake of fluorine-18-radioactivity, Salivary x2 (Ex vivo biodistribution; salivary x2, 90 min after injection): 0.89 %ID/g tissue
Uptake of fluorine-18-radioactivity, Small int. wall + contents (Ex vivo biodistribution; 5 min after injection): 0.69 %ID/g tissue
Uptake of fluorine-18-radioactivity, Small int. wall + contents (Ex vivo biodistribution; 15 min after injection): 1.07 %ID/g tissue
Uptake of fluorine-18-radioactivity, Small int. wall + contents (Ex vivo biodistribution; 30 min after injection): 1.44 %ID/g tissue
Uptake of fluorine-18-radioactivity, Small int. wall + contents (Ex vivo biodistribution; 60 min after injection): 1.80 %ID/g tissue
Uptake of fluorine-18-radioactivity, Small int. wall + contents (Ex vivo biodistribution; 90 min after injection): 2.04 %ID/g tissue
Uptake of fluorine-18-radioactivity, Stomach wall + contents (Ex vivo biodistribution; 5 min after injection): 0.27 %ID/g tissue
Uptake of fluorine-18-radioactivity, Stomach wall + contents (Ex vivo biodistribution; 15 min after injection): 0.65 %ID/g tissue
Uptake of fluorine-18-radioactivity, Stomach wall + contents (Ex vivo biodistribution; 30 min after injection): 0.43 %ID/g tissue
Uptake of fluorine-18-radioactivity, Stomach wall + contents (Ex vivo biodistribution; 60 min after injection): 0.33 %ID/g tissue
Uptake of fluorine-18-radioactivity, Stomach wall + contents (Ex vivo biodistribution; 90 min after injection): 0.44 %ID/g tissue
Uptake of fluorine-18-radioactivity, Testis (Ex vivo biodistribution; 5 min after injection): 0.11 %ID/g tissue
Uptake of fluorine-18-radioactivity, Testis (Ex vivo biodistribution; 15 min after injection): 0.10 %ID/g tissue
Uptake of fluorine-18-radioactivity, Testis (Ex vivo biodistribution; 30 min after injection): 0.13 %ID/g tissue
Uptake of fluorine-18-radioactivity, Testis (Ex vivo biodistribution; 60 min after injection): 0.14 %ID/g tissue
Uptake of fluorine-18-radioactivity, Testis (Ex vivo biodistribution; 90 min after injection): 0.14 %ID/g tissue
Unchanged radiotracer, share of radioactivity in the brain ([1]; brain homogenate): 53.6 ± 1.6%
Unchanged radiotracer, share of radioactivity in the plasma ([1]; plasma): 11.1 ± 2.6%
Fraction of radioactivity unbound to the plasma proteins [2]: 32.8 ± 8.8%
Compound: CCN(CC)C(=O)Cc1c(-c2ccc(OCC[18F])cc2)nn2c(C)cc(C)nc12 [[^18F]DPA-714, reference compound]
Ki (CBR): > 1000 nM
Accumulation of radioactivity in the bone (defluorination in vivo) (Ex vivo biodistribution; after the initial uptake at 5 min, up to 90 min): no significant accumulation of radioactivity in the bone
